Converted amounts (≈) assume the structure as drawn.
Tests used:
[1] = system: Eo (Echinochloa oryzicola); experiment: Example 1 field test, weed control in transplanted rice, Iri, Korea; type: in vivo; details: av. of 36 and 63 DAT
From the text: (§1) In the field test 48 day-old seedlings (Watanabe variety) were transplanted to plots 2.5 × 6 m. seeded with the weed seeds indicated in Table 1. At 5 and 10 DAT periods, the herbicides were applied to the plants (now at the 1.2 and 2.0 leaf stage, respectively, of grass weed) at the indicated rate in kilograms per hectare (kg/ha). The weed control and rice injury results for 3 replications are reported in percentages as of the indicated times of observation. The percentages given in the "Perennials" column are based on the weight of the weeds at 63 DAT, i.e., 42 gms/3.6 m^2 for the weedy check.

[2] = system: Mv (Monochoria vaginalis); experiment: as above; type: in vivo; details: av. of 36 and 63 DAT
From the text: as §1

transplanted rice = experiment: Example 1 field test, rice injury; type: in vivo, rice (Watanabe variety)
From the text: as §1

[3] = system: Grass: Ec and Ecol (Echinochloa crusgalli, Echinochloa colonum); experiment: Example 3 field test on Dapog rice, weed control, Munoz, Philippines; type: in vivo; details: obs. 42 DAT
From the text: (§2) Treatments were replicated four times.

[4] = system: Sedges: Cd, Ci, Fl (Cyperus difformis, Cyperus iria, Fimbristylis littoralis); experiment: as above; type: in vivo; details: obs. 42 DAT
From the text: as §2

Dapog transplanted rice = experiment: Example 3 field test, crop injury; details: for Crop Injury (%): obs. 42 DAT
Protocol: (§3) In the tests described in the tables below, the herbicides were formulated and used in granular form in conventional manner. […] The commercial herbicide used was a granular product having 5% active ingredient.
(§4) In the field tests of the herbicide of this invention with transplanted rice, the rice seedlings were grown in conventional manner, by seeding the rice in a typical seedbed of sandy loam to clay soil of the country wherein the test was conducted. For laboratory and greenhouse work the seedlings were obtained by seeding rice in a mixture of soil, e.g., Ray silt loam, and peat in wood flats. For purposes of testing the herbicides on younger rice seedlings (infant or Dapog) the rice was usually allowed to grow for 6-15 days before lifting for transplanting. Older (ordinary) rice plants were usually grown for a period of about 2-3 weeks, or as much as about 7 weeks before lifting. Since the period of growth is dependent upon climatic conditions, a better measure of when to transplant the rice seedling is the leaf stage of growth; for infant or Dapog rice the seedling is lifted at the 1.5-2 leaf stage of growth, and for ordinary seedlings at the 2.5-5 leaf stage. The seedlings were then transplanted to the test plots for evaluation of the herbicide for injury against weed species present with the transplanted rice. The herbicides were then applied to the growth medium of the weeds and transplant rice, either preemergent or postemergent with respect to the weeds and postemergent with respect to the transplanted rice. Application times are designated in the tables as "DAT", meaning "days after transplant". Application rates given in the tables refer to the amount of active ingredient used.
Eleven (11) day-old Dapog seedlings were transplanted and treated at 5 DAT and 14 DAT with Herbicides A and B. The plots were overseeded with Echinochloa crusgalli seeds at 2 kgs/ha prior to transplanting. Treatments were replicated four times.

[5] = system: Broadleaf: Mv, Sz (Monochoria vaginalis, Sphenoclea zeylanica); experiment: Example 4 field test on ordinary rice, weed control, Munoz, Philippines; type: in vivo, Monochoria vaginalis and Sphenoclea zeylanica; details: obs. 36 DAT
From the text: as §2

[6] = system: Obw (other broadleaf weeds); experiment: Example 5 field test, weed control, JAAPR, Japan; type: in vivo
[7] = system: transplanted rice (ordinary and infant seedlings); experiment: Example 5 field test, rice injury
Protocol: as §3, §4
The rice seedlings were grown to the 1.7 leaf stage for infant seedlings and to the 5.5 leaf stage for ordinary seedlings. Two days after puddling the soil in which the seedlings were to be transplanted, both infant and ordinary seedlings were transplanted into plots 8.5 m^2.
The weed symbol "Obw" represents "other broadleaf weeds" of unspecified identity. Results presented in Table 5 represent the average of 2 replications.

[8] = Example 10 fish toxicity, Japanese protocol; type: in vivo, carp; details: carp, in vivo, read-out: Medium Lethal Concentration
Protocol: In view of the importance of fish toxicological considerations, tests were conducted, using carp according to the Japanese protocol, to compare toxicity data for Herbicides A and B; results of those tests are shown in Table 10.

[9] = system: weeds in transplanted rice; experiment: Field tests / general herbicidal activity in transplanted rice; type: in vivo
[10] = system: weeds in ordinary transplanted rice; experiment: Example 4 field test, overall weed control; type: in vivo
From the text: as §2

[11] = 1.0 kg/ha, 15 DAT, infant seedlings
[12] = 1.0 kg/ha, 15 DAT, ordinary seedlings
[13] = .25 kg/ha, 2 DAT, infant seedlings
[14] = .25 kg/ha, 2 DAT, ordinary seedlings
[15] = .5 kg/ha, 7 DAT, infant seedlings
[16] = .5 kg/ha, 7 DAT, ordinary seedlings

CCCCOCN(C(=O)CCl)c1c(C)cccc1C(C)(C)C [Herbicide A, n-(butoxymethyl)-6'-tert-butyl-2-chloro-o-acetotoluidide]
% Weed Control (Eo) ([1]; 5 DAT, 1.0 kg/ha): 91%
% Weed Control (Eo) ([1]; 5 DAT, 2.0 kg/ha): 94%
% Weed Control (Eo) ([1]; 5 DAT, .25 kg/ha): 86%
% Weed Control (Eo) ([1]; 5 DAT, .5 kg/ha): 93%
% Weed Control (Eo) ([1]; 10 DAT, 1.0 kg/ha): 90%
% Weed Control (Eo) ([1]; 10 DAT, 2.0 kg/ha): 92%
% Weed Control (Eo) ([1]; 10 DAT, .25 kg/ha): 82%
% Weed Control (Eo) ([1]; 10 DAT, .5 kg/ha): 88%
% Weed Control (Mv) ([2]; 5 DAT, 1.0 kg/ha): 89%
% Weed Control (Mv) ([2]; 5 DAT, 2.0 kg/ha): 82%
% Weed Control (Mv) ([2]; 5 DAT, .25 kg/ha): 72%
% Weed Control (Mv) ([2]; 5 DAT, .5 kg/ha): 80%
% Weed Control (Mv) ([2]; 10 DAT, 1.0 kg/ha): 72%
% Weed Control (Mv) ([2]; 10 DAT, 2.0 kg/ha): 83%
% Weed Control (Mv) ([2]; 10 DAT, .25 kg/ha): 53%
% Weed Control (Mv) ([2]; 10 DAT, .5 kg/ha): 80%
% Rice Injury (transplanted rice; 5 DAT, 1.0 kg/ha, obs. 21 DAT): 5%
% Rice Injury (transplanted rice; 5 DAT, 1.0 kg/ha, obs. 42 DAT): 0%
% Rice Injury (transplanted rice; 5 DAT, 2.0 kg/ha, obs. 21 DAT): 10%
% Rice Injury (transplanted rice; 5 DAT, 2.0 kg/ha, obs. 42 DAT): 0%
% Rice Injury (transplanted rice; 5 DAT, .25 kg/ha, obs. 21 DAT): 0%
% Rice Injury (transplanted rice; 5 DAT, .25 kg/ha, obs. 42 DAT): 0%
% Rice Injury (transplanted rice; 5 DAT, .5 kg/ha, obs. 21 DAT): 0%
% Rice Injury (transplanted rice; 5 DAT, .5 kg/ha, obs. 42 DAT): 0%
% Rice Injury (transplanted rice; 10 DAT, 1.0 kg/ha, obs. 21 DAT): 0%
% Rice Injury (transplanted rice; 10 DAT, 1.0 kg/ha, obs. 42 DAT): 0%
% Rice Injury (transplanted rice; 10 DAT, 2.0 kg/ha, obs. 21 DAT): 10%
% Rice Injury (transplanted rice; 10 DAT, 2.0 kg/ha, obs. 42 DAT): 0%
% Rice Injury (transplanted rice; 10 DAT, .25 kg/ha, obs. 21 DAT): 0%
% Rice Injury (transplanted rice; 10 DAT, .25 kg/ha, obs. 42 DAT): 0%
% Rice Injury (transplanted rice; 10 DAT, .5 kg/ha, obs. 21 DAT): 0%
% Rice Injury (transplanted rice; 10 DAT, .5 kg/ha, obs. 42 DAT): 0%
early season injury to rice (transplanted rice; Example 1, outgrown): slight early season injury to rice was outgrown
% Weed control, Grass (Ec and Ecol) ([3]; 5 DAT, 1.0 kg/ha): 100%
% Weed control, Grass (Ec and Ecol) ([3]; 5 DAT, 2.0 kg/ha): 100%
% Weed control, Grass (Ec and Ecol) ([3]; 5 DAT, .25 kg/ha): 100%
% Weed control, Grass (Ec and Ecol) ([3]; 5 DAT, .5 kg/ha): 100%
% Weed control, Grass (Ec and Ecol) ([3]; 14 DAT, 1.0 kg/ha): 50%
% Weed control, Grass (Ec and Ecol) ([3]; 14 DAT, 2.0 kg/ha): 90%
% Weed control, Grass (Ec and Ecol) ([3]; 14 DAT, .25 kg/ha): 0%
% Weed control, Grass (Ec and Ecol) ([3]; 14 DAT, .5 kg/ha): 50%
% Weed control, Sedges (Cd, Ci, Fl) ([4]; 5 DAT, 1.0 kg/ha): 100%
% Weed control, Sedges (Cd, Ci, Fl) ([4]; 5 DAT, 2.0 kg/ha): 100%
% Weed control, Sedges (Cd, Ci, Fl) ([4]; 5 DAT, .25 kg/ha): 100%
% Weed control, Sedges (Cd, Ci, Fl) ([4]; 5 DAT, .5 kg/ha): 100%
% Weed control, Sedges (Cd, Ci, Fl) ([4]; 14 DAT, 1.0 kg/ha): 70%
% Weed control, Sedges (Cd, Ci, Fl) ([4]; 14 DAT, 2.0 kg/ha): 70%
% Weed control, Sedges (Cd, Ci, Fl) ([4]; 14 DAT, .25 kg/ha): 0%
% Weed control, Sedges (Cd, Ci, Fl) ([4]; 14 DAT, .5 kg/ha): 70%
Crop Injury (%) (Dapog transplanted rice; 5 DAT, 1.0 kg/ha): 40%
Crop Injury (%) (Dapog transplanted rice; 5 DAT, 2.0 kg/ha): 50%
Crop Injury (%) (Dapog transplanted rice; 5 DAT, .25 kg/ha): 0%
Crop Injury (%) (Dapog transplanted rice; 5 DAT, .5 kg/ha): 0%
Crop Injury (%) (Dapog transplanted rice; 14 DAT, 1.0 kg/ha): 0%
Crop Injury (%) (Dapog transplanted rice; 14 DAT, 2.0 kg/ha): 80%
Crop Injury (%) (Dapog transplanted rice; 14 DAT, .25 kg/ha): 0%
Crop Injury (%) (Dapog transplanted rice; 14 DAT, .5 kg/ha): 0%
rice injury in words (Dapog transplanted rice; higher rates, 5 DAT): considerable rice injury
% Weed control, Broadleaf (Mv,Sz) ([5]; 5 DAT, 1.0 kg/ha): 100%
% Weed control, Broadleaf (Mv,Sz) ([5]; 5 DAT, 2.0 kg/ha): 100%
% Weed control, Broadleaf (Mv,Sz) ([5]; 5 DAT, .25 kg/ha): 100%
% Weed control, Broadleaf (Mv,Sz) ([5]; 5 DAT, .5 kg/ha): 100%
% Weed control, Broadleaf (Mv,Sz) ([5]; 14 DAT, 1.0 kg/ha): 60%
% Weed control, Broadleaf (Mv,Sz) ([5]; 14 DAT, 2.0 kg/ha): 60%
% Weed control, Broadleaf (Mv,Sz) ([5]; 14 DAT, .25 kg/ha): 50%
% Weed control, Broadleaf (Mv,Sz) ([5]; 14 DAT, .5 kg/ha): 50%
control of Obw in words ([6]; 0.25 kg/ha both plots, 1.0 kg/ha ordinary): controlled completely
% Weed Control (Obw) [6, 11]: 96%
% Weed Control (Obw) [6, 12]: 100%
% Weed Control (Obw) [6, 13]: 100%
% Weed Control (Obw) [6, 14]: 100%
% Weed Control (Obw) [6, 15]: 83%
% Weed Control (Obw) [6, 16]: 82%
Injury [7, 11]: 0
Injury [7, 12]: 0
Injury [7, 13]: 0
Injury [7, 14]: 0
Injury [7, 15]: 0
Injury [7, 16]: 0
injury to seedlings in words ([7]; ordinary and infant seedlings): Injury to neither ordinary nor infant seedlings occurred
LC50 at 48 h ([8]; 48 hours): 1.8 µg/mL (≈ 5.52 µM)
LC50 at 96 h ([8]; 96 hours): 1.4 µg/mL (≈ 4.3 µM)
latest/optimum application stage of weeds ([9]; field tests): 2-2.5 leaf stage
control of undesirable vegetation ([9]; monocotyledons and dicotyledons): fair to excellent control
herbicidal activity in transplanted rice ([9]; presence of transplanted rice): superior herbicidal activity
selectivity vs Herbicide B in transplant rice ([9]; transplant rice cultures): more selective
control of all weeds ([10]; 5 DAT): complete control of all weeds
weed control in words ([10]; 14 DAT): dropped off
weed control vs Herbicide B ([10]; 14 DAT): more weed control

Reference: patent US3955959A, “Herbicide for use in transplanted rice” (priority 1974, dated 1976)
